Consider nine compounds from US20130197040A1, “POLYMORPHS OF DALFAMPRIDINE, PREPARATIONS AND USES THEREOF” (priority 2010, published 2013).

The nature of data set [1]: Stability on exposure to the air at room temperature for 12 months, purity by HPLC. In kind it is physicochemical. Particulars: after exposure to the air at room temperature for 12 months. How it is done:
The polymorphs of 4-aminopyridine or the polymorphs of the solvates thereof according to the present invention were exposed to the air at room temperature for 12 months, and then purities thereof were measured by using high performance liquid chromatography.
The above-mentioned eight polymorphs of 4-aminopyridine or of the solvates thereof according to the present invention were exposed to the air at room temperature for 12 months, and then purities thereof were measured by using high performance liquid chromatography. The obtained purity results thereof were shown as follows:
The purities were measured by using high performance liquid chromatography under the following conditions:
Chromatographic Column: Agilent extend-C18 (250*4.6 mm, 5 μ)
Mobile Phase: 0.01 mol/L of monopotassium phosphate solution containing 0.01 mol/L of sodium octanesulfonate (adjusted to pH 2.6 with phosphoric acid)-methanol (75:25);
Column Temperature: 40° C.;
Detection Wavelength: 264 nm;

Data set [2] deals with multiple sclerosis patients. Conditions: injected in 11 patients with eyesight and motor function impaired because of multiple sclerosis, 1983; cited from earlier work.
Data set [3] relates to multiple sclerosis patients. Particulars: clinical trials (Phase III); cited from earlier work.

In the case of `Nc1ccncc1` [Polymorph I, 4-aminopyridine], the “Purity (%)” value in data set [1] is given as 99.66%.
Same read-out and setting: for `Nc1ccncc1` [Polymorph II, 4-aminopyridine] the value was 100%; for `Nc1ccncc1` [Polymorph III, 4-aminopyridine], 100%; for `Nc1ccncc1` [Polymorph IV, 4-aminopyridine], 100%.
Still for that read-out and setting: in the case of `Nc1ccncc1` [Polymorph V, 4-aminopyridine] it was 100%.
Still for that read-out and setting: in the case of `Nc1ccncc1` [Polymorph VI, 4-aminopyridine] it was 99.98%; in that of `Nc1ccncc1` [Polymorph VII, 4-aminopyridine], 100%.
With `Nc1ccncc1` [Polymorph VIII, 4-aminopyridine], in data set [1], the “Purity (%)” value is 100%.
Consider `Nc1ccncc1` [dalfampridine, 4-aminopyridine], for which, in data set [2], the eyesight result is recorded as “improved” and the walking speed entry was “improved”. For the same compound, the “walking speed versus placebo” value in data set [3] is on record as “faster than that in patients who took a placebo”.
